Patent US12037324B2, “Biarylmethyl heterocycles” (Université de Montréal, priority 2016, dated 2024)
Where a name gives a salt, the structure may show the parent alone.

Columns and labels:
Format in all cases: cell-based
hAT1R [1] = target: T1, hAT1R (Homo sapiens, UniProt P30556); assay: BRET Gq biosensor assay, agonist response, HEK293 cells; details: section of the 42nd table directly before the BRET P63 section
T1 sequence (P30556 1-359): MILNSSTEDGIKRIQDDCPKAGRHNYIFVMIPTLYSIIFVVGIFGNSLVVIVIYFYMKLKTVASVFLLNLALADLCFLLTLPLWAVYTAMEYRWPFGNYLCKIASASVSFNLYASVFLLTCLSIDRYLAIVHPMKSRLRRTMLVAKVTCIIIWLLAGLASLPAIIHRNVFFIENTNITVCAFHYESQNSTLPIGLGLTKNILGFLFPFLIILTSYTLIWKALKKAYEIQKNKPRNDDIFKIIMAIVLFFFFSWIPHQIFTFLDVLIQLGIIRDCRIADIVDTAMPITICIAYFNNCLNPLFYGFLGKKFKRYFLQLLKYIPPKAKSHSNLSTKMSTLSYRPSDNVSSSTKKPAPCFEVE
Outline: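 HEK293 cells co-transfected with signal-peptide-optimized hAT1R plus Gαq-Rluc, Gβ1 and GFP-Gγ1, assayed 48 h later in Tyrode's buffer pH 7.4. Coelenterazine (2 μM final) added, then compound; BRET2 (515/410 nm) read after 5 min at room temperature. EC50 by 4-parameter fit, normalized to unstimulated (0%) and maximal AngII (100%).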

hAT1R [2] = target: T1, hAT1R; assay: BRET β-arrestin2 biosensor assay, higher receptor expression (hAT1R 5 ng/well), HEK293 cells; details: for EC50: High AT1R Expression
AGTR1 = target: T2, AGTR1 (Homo sapiens, UniProt P30556); assay: DiscoveRx β-arrestin2 recruitment assay (enzyme complementation, Pathunter CHO-K1 AGTR1 β-arrestin cell line); details: DiscoveRx β-arrestin2 recruitment; for DiscoveRx β-arrestin2 Ymax (%): maximal response
T2 construct: host or cells: Pathunter CHO-K1 AGTR1 β-arrestin cell line (CHO-K1)
T2 sequence (P30556 1-359): T1 sequence (P30556 1-359)
Outline: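 CHO-K1 cells expressing AGTR1 with β-arrestin2 enzyme-complementation reporter, plated 14-16 h ahead in 1% serum medium, then exposed to compounds for 90 min at 37° C. Chemiluminescence read after 1 h detection. EC50 (agonist) or IC50 (antagonist) from 4-parameter logistic fit; activity as percentage of All maximal effect.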

SMILES	EC50 (hAT1R [1])	BRET β-Arrestin2 High AT1R Expression Ymax (%) (hAT1R [2])	EC50 (hAT1R [2])	EC50 (AGTR1)	DiscoveRx β-arrestin2 Ymax (%) (AGTR1)
CCOc1nc2cccc(C(=O)O)c2n1Cc1ccc(-c2cc(-c3ccc(C(=O)N(C)C)cc3)ccc2-c2noc(=O)[nH]2)cc1 [Example 321]	47.9 nM	86.7%	108 nM	56.8 nM	83.4%
CCOc1nc2cccc(C(=O)O)c2n1Cc1ccc(-c2cc(-c3cccnc3OC)ccc2-c2noc(=O)[nH]2)cc1 [Example 329]	31.5 nM	91.4%	2.8 nM	7.1 nM	77.6%
CCCCc1ncc(C(=O)O)n1Cc1ccc(-c2cc(-c3ccccc3)ccc2-c2nn[nH]n2)cc1 [Example 345, 1-((6′-(2H-tetrazol-5-yl)-[1,1′:3′,1″-terphenyl]-4-yl)methyl)-2-butyl-1H-imidazole-5-carboxylic acid, TFA salt]	12.5 nM	92.0%	17.9 nM	18.1 nM	44.8%
CCCCc1ncc(C(=O)N2CCCC2)n1Cc1ccc(-c2cc(-c3ccccc3)ccc2-c2nn[nH]n2)cc1 [Example 347]	242 nM	48.8%	172 nM	57.2 nM	26.8%
CCCCc1ncc(C(=O)NCCO)n1Cc1ccc(-c2cc(-c3ccccc3)ccc2-c2nn[nH]n2)cc1 [Example 348]	89.2 nM	85.4%	34.3 nM	7.3 nM	50.9%
CCCCc1ncc(C(=O)Nc2nc(C)cs2)n1Cc1ccc(-c2cc(-c3ccccc3)ccc2-c2nn[nH]n2)cc1 [Example 349]	174 nM	67.6%	117 nM	69.2 nM	24.8%
CCCCc1ncc(C(=O)NCCC(C)(C)O)n1Cc1ccc(-c2cc(-c3ccccc3)ccc2-c2nn[nH]n2)cc1 [Example 350]	25.3 nM	94.3%	15.6 nM	8.3 nM	47.0%
CCCCc1ncc(C(=O)NC2CC3(CCC3)C2)n1Cc1ccc(-c2cc(-c3ccccc3)ccc2-c2nn[nH]n2)cc1 [Example 351]	81.1 nM	89.6%	38.9 nM	18 nM	45.4%
CCCCc1ncc(C(=O)NC(C)(C)C)n1Cc1ccc(-c2cc(-c3ccccc3)ccc2-c2nn[nH]n2)cc1 [Example 352]	1180 nM	62.2%	290 nM	234 nM	35.7%
CCCCc1ncc(C(=O)Nc2ccncc2)n1Cc1ccc(-c2cc(-c3ccccc3)ccc2-c2nn[nH]n2)cc1 [Example 353]	566 nM	49.1%	65.5 nM	55 nM	22.4%
CCCCc1ncc(C(=O)NC2CCCCC2)n1Cc1ccc(-c2cc(-c3ccccc3)ccc2-c2nn[nH]n2)cc1 [Example 354]	45.5 nM	99.5%	19.3 nM	59.9 nM	48.3%
CCCCc1ncc(C(=O)NCc2cccnn2)n1Cc1ccc(-c2cc(-c3ccccc3)ccc2-c2nn[nH]n2)cc1 [Example 355]	> 1000 nM	92.5%	23.3 nM	8.6 nM	42.4%
CCCCc1ncc(C(=O)NCc2nccs2)n1Cc1ccc(-c2cc(-c3ccccc3)ccc2-c2nn[nH]n2)cc1 [Example 356]	36.7 nM	84.7%	17.7 nM	27.3 nM	41.5%
CCCCc1ncc(C(=O)NCCC2CC2)n1Cc1ccc(-c2cc(-c3ccccc3)ccc2-c2nn[nH]n2)cc1 [Example 357]	46.3 nM	72.5%	23.4 nM	19.6 nM	41.8%
CCCCc1ncc(C(=O)NC2COC2)n1Cc1ccc(-c2cc(-c3ccccc3)ccc2-c2nn[nH]n2)cc1 [Example 358]	44.7 nM	88.8%	21.4 nM	10.1 nM	40.2%
CCCCc1ncc(C(=O)NCc2cnccn2)n1Cc1ccc(-c2cc(-c3ccccc3)ccc2-c2nn[nH]n2)cc1 [Example 359]	39.4 nM	90.8%	15.3 nM	17.4 nM	43.5%
CCCCc1ncc(C(=O)NCC(C)(C)COC)n1Cc1ccc(-c2cc(-c3ccccc3)ccc2-c2nn[nH]n2)cc1 [Example 360]	> 100000 nM	75.0%	35.1 nM	29.2 nM	37.2%
CCCCc1ncc(C(=O)NC(C)(C)COC)n1Cc1ccc(-c2cc(-c3ccccc3)ccc2-c2nn[nH]n2)cc1 [Example 361]	296 nM	61.3%	128 nM	97.8 nM	29.3%
CCCCc1ncc(C(=O)NC2CCCCCC2)n1Cc1ccc(-c2cc(-c3ccccc3)ccc2-c2nn[nH]n2)cc1 [Example 362]	34.2 nM	97.0%	26.4 nM	123 nM	49.8%
CCCCc1ncc(C(=O)NCc2cc(C(C)C)no2)n1Cc1ccc(-c2cc(-c3ccccc3)ccc2-c2nn[nH]n2)cc1 [Example 363]	59.6 nM	100.4%	23.8 nM	10.7 nM	46.2%
CCCCc1ncc(C(=O)NCC(F)F)n1Cc1ccc(-c2cc(-c3ccccc3)ccc2-c2nn[nH]n2)cc1 [Example 364]	119 nM	79.4%	50.5 nM	23.2 nM	30.3%
CCCCc1ncc(C(=O)NCC2CC2)n1Cc1ccc(-c2cc(-c3ccccc3)ccc2-c2nn[nH]n2)cc1 [Example 365]	40.8 nM	82.7%	35.9 nM	46.2 nM	39.7%
CCCCc1ncc(C(=O)NCCC(C)C)n1Cc1ccc(-c2cc(-c3ccccc3)ccc2-c2nn[nH]n2)cc1 [Example 366]	42.9 nM	78.7%	27.4 nM	11.1 nM	37.0%
CCCCc1ncc(C(=O)NCCOC(C)C)n1Cc1ccc(-c2cc(-c3ccccc3)ccc2-c2nn[nH]n2)cc1 [Example 367]	59.1 nM	63.3%	17.6 nM	5.7 nM	35.9%
CCCCc1ncc(C(=O)NCC(C)C)n1Cc1ccc(-c2cc(-c3ccccc3)ccc2-c2nn[nH]n2)cc1 [Example 368]	96.1 nM	82.6%	32.5 nM	59.8 nM	39.1%
CCCCc1ncc(C(=O)N[C@@H](CC)C2CC2)n1Cc1ccc(-c2cc(-c3ccccc3)ccc2-c2nn[nH]n2)cc1 [Example 369]	173 nM	73.8%	73.3 nM	174 nM	30.9%
CCCCc1ncc(C(=O)N2CCC2)n1Cc1ccc(-c2cc(-c3ccccc3)ccc2-c2nn[nH]n2)cc1 [Example 370]	71.9 nM	85.5%	45.3 nM	16.3 nM	26.8%
CCCCc1ncc(C(=O)NCc2ccccn2)n1Cc1ccc(-c2cc(-c3ccccc3)ccc2-c2nn[nH]n2)cc1 [Example 371]	> 1000 nM	94.4%	11 nM	5.7 nM	40.8%
CCCCc1ncc(C(=O)NCCC)n1Cc1ccc(-c2cc(-c3ccccc3)ccc2-c2nn[nH]n2)cc1 [Example 372]	73.8 nM	78.9%	44.8 nM	58.8 nM	41.7%
CCCCc1ncc(C(=O)NCC(C)(C)C)n1Cc1ccc(-c2cc(-c3ccccc3)ccc2-c2nn[nH]n2)cc1 [Example 373]	734 nM	71.4%	38.5 nM	14.2 nM	29.5%
